Where two headings read alike, the source gives them in different places. Each block holds one molecule with its values, some of them ahead of it.
Molecular target: T1, human β3 adrenergic receptor (Homo sapiens, UniProt P13945)
T1 construct: expressed in transfected cells; host or cells: Chinese hamster ovary (CHO) cells, stably transfected
Assay: Beta-3 agonist in vitro functional assay: cAMP production (LANCE TR-FRET) in CHO cells stably transfected with the cloned β3 receptor
Type: cell-based
Protocol: Chinese hamster ovary (CHO) cells, stably transfected with the cloned β-adrenergic receptor (β1, β2 or β3) are harvested after 3 days of subculturing. Harvesting of cells is done with Enzyme-free Dissociation Media (Specialty Media). Cells are then counted and resuspended in assay buffer (Hank's Balanced salt solution supplemented with 5 mM HEPES, […]) containing a phosphodiesterase inhibitor (IBMX, 0.6 mM). The reaction is initiated by mixing 6,000 cells in 6 μL with 6 μL Alexa Fluor labeled cAMP antibody (LANCE™ kit) which is then added to an assay well containing 12 μL of compound (diluted in assay buffer to 2× final concentration). The reaction proceeds for 30 minutes at RT and is terminated by the addition of 24 ul detection buffer (LANCE™ kit). The assay plate is then incubated for 1 h at RT and time-resolved fluorescence measured on a Perkin Elmer Envision reader or equivalent. The unknown cAMP level is determined by comparing fluorescence levels to a cAMP standard curve.
The non-selective, full agonist β-adrenergic ligand isoproterenol is used at all three receptors to determine maximal stimulation. […] Data are analyzed using Microsoft Excel and Graphpad Prism or an internally developed data analysis software package.

[1] = Table 10, Beta-3 agonist in vitro functional assay, read-out: Human β3 agonist functional activity
[2] = Table 5, cAMP, CHO cells, read-out: Human β3 agonist functional activity
[3] = Table 12, human β3 functional activity given as ranges, read-out: Human β3 agonist functional activity
[4] = Table 8, Beta-3 agonist in vitro functional assay, read-out: Human β3 agonist functional activity
[5] = Table 11, cAMP, CHO cells, read-out: Human β3 agonist functional activity
[6] = Table 4, cAMP, CHO cells, read-out: Human β3 agonist functional activity
[7] = Table 9, Beta-3 agonist in vitro functional assay, read-out: Human β3 agonist functional activity

T1 sequence (P13945 whole entry): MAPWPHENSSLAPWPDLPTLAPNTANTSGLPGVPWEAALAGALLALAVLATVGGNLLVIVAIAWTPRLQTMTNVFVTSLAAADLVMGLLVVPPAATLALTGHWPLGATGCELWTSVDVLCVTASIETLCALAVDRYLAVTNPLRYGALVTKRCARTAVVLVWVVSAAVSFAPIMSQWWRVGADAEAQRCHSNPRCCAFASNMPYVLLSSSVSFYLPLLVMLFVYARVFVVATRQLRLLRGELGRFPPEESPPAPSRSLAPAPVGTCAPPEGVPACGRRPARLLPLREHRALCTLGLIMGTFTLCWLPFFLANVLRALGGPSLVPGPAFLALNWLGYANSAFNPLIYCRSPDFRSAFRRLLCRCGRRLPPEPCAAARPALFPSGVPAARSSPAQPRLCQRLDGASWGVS

SMILES: O=C(c1ccc(C[C@@H]2CC[C@H]([C@H](O)c3ccccc3)N2)cc1)N1C2CCC1C1CCC2N1Cc1ccccn1 [Example 524, (R)-phenyl[(2R,5S)-5-(4-{[10-(pyridin-2-ylmethyl)-9,10-diazatricyclo[4.2.1.1^2,5]dec-9-yl]carbonyl}benzyl)pyrrolidin-2-yl]methanol]
EC50 (given as a range, cAMP, CHO cells, read-out: human β3 functional activity): 10 to 99.9 nM

SMILES: O=C(c1ccc(C[C@@H]2CC[C@H]([C@H](O)c3ccccc3)N2)cc1)N1CCC(Oc2ccccn2)CC1 [Example 152]
EC50 [2]: 10 to 99.9 nM

SMILES: Nc1nnc(C2CCN(C(=O)c3ccc(C[C@@H]4CC[C@H]([C@H](O)c5ccccc5)N4)cc3)CC2)o1 [Example 99]
EC50 [2]: 10 to 99.9 nM

SMILES: O=C(c1ccc(C[C@@H]2CC[C@H]([C@H](O)c3cccnc3)N2)cc1)N1CCC(n2cc(-c3ccccc3)[nH]c2=O)CC1 [Example 85]
EC50 [2]: 10 to 99.9 nM

SMILES: O=C(c1ccc(C[C@@H]2CC[C@H]([C@H](O)c3ccccc3)N2)cc1)N1CCC2(CC1)OCCS2(=O)=O [Example 303]
EC50 [4]: 10 to 99.9 nM

SMILES: O=C1OC2(CCN(C(=O)c3ccc(C[C@@H]4CC[C@H]([C@H](O)c5ccccc5)N4)cc3)CC2)c2ccccc21 [Example 283]
EC50 [4]: 10 to 99.9 nM

SMILES: O=C(c1ccc(C[C@@H]2CC[C@H]([C@H](O)c3ccccc3)N2)cc1)N1CCC(c2nc(-c3cnccn3)no2)CC1 [Example 83]
EC50 [2]: 100 to 999 nM

SMILES: O=C(c1ccc(C[C@@H]2CC[C@H]([C@H](O)c3ccccc3)N2)cc1)N1CCCCC1c1nccs1 (stereo partly drawn) [Example 50]
EC50 [6]: 100 to 999 nM

SMILES: Cn1ccnc1C1CCCCN1C(=O)c1ccc(C[C@@H]2CC[C@H]([C@H](O)c3ccccc3)N2)cc1 (stereo partly drawn) [Example 51]
EC50 [6]: 100 to 999 nM

SMILES: O=C(c1ccc(C[C@@H]2CC[C@H]([C@H](O)c3ccccc3)N2)cc1)N1CCC2(CC1)C(=O)Oc1ccccc12 [Example 290]
EC50 [4]: 10 to 99.9 nM

SMILES: Cc1cncn1C1CCN(C(=O)c2ccc(C[C@@H]3CC[C@H]([C@H](O)c4ccccc4)N3)cc2)CC1 [Example 86]
EC50 [2]: 100 to 999 nM

SMILES: O=C(c1ccc(C[C@@H]2CC[C@H]([C@H](O)c3ccccc3)N2)cc1)N1CCC(n2c(=O)[nH]c3nc(F)ccc32)CC1 [Example 73]
EC50 [2]: 10 to 99.9 nM

SMILES: O=C(c1ccc(C[C@@H]2CC[C@H]([C@H](O)c3cccnc3)N2)cc1)N1CCC(S(=O)(=O)c2ccc(F)cc2)CC1 [Example 129]
EC50 [2]: 100 to 999 nM

SMILES: Cn1nnnc1C1CCN(C(=O)c2ccc(C[C@@H]3CC[C@H]([C@H](O)c4ccccc4)N3)cc2)CC1 [Example 108]
EC50 [2]: 1 to 9.9 nM

SMILES: NC(=O)C1(F)CN(C(=O)c2ccc(C[C@@H]3CC[C@H]([C@H](O)c4ccccc4)N3)cc2)C1 [Example 4]
EC50 [6]: 100 to 999 nM

SMILES: CC(Oc1ccncn1)C1CCN(C(=O)c2ccc(C[C@@H]3CC[C@H]([C@H](O)c4ccccc4)N3)cc2)CC1 (stereo partly drawn) [Example 167]
EC50 [2]: 100 to 999 nM

SMILES: CCN1CCC2(CCN(C(=O)c3ccc(C[C@@H]4CC[C@H]([C@H](O)c5ccccc5)N4)cc3)CC2)C1=O [Example 252]
EC50 [4]: 100 to 999 nM

SMILES: O=C(c1ccc(C[C@@H]2CC[C@H]([C@H](O)c3ccccc3)N2)cc1)N1CCC2(CCOC2)CC1 [Example 311]
EC50 [4]: 100 to 999 nM

SMILES: O=C(c1ccc(C[C@@H]2CC[C@H]([C@H](O)c3ccccc3)N2)cc1)N1CCC(S(=O)(=O)c2ccc(F)cc2)CC1 [Example 128]
EC50 [2]: 10 to 99.9 nM

SMILES: O=C(c1ccc(C[C@@H]2CC[C@H]([C@H](O)c3cccnc3)N2)cc1)N1CCC(n2nccn2)CC1 [Example 94]
EC50 [2]: 100 to 999 nM

SMILES: N#CC1(c2cccnn2)C2CN(C(=O)c3ccc(C[C@@H]4CC[C@H]([C@H](O)c5ccccc5)N4)cc3)CC21 (stereo partly drawn) [Example 236]
EC50 (Table 7, cAMP, CHO cells, ranges as given for Tables 6 and 7, read-out: Human β3 agonist functional activity): 10 to 99.9 nM

SMILES: O=C(c1ccc(C[C@@H]2CC[C@H]([C@H](O)c3ccccc3)N2)cc1)N1CCC(Cn2cccnc2=O)CC1 [Example 150]
EC50 [2]: 100 to 999 nM

SMILES: O=C1OC2(CCN(C(=O)c3ccc(C[C@@H]4CC[C@H]([C@H](O)c5ccccc5)N4)cc3)CC2)CC1Cc1ccc(F)cc1 (stereo partly drawn) [Example 276]
EC50 [4]: 1 to 9.9 nM

Next, values leading:

EC50 [1]: 1 to 9.9 nM
SMILES: CCC(C)(C)NC(=O)C(C)N1CCN(C(=O)c2ccc(C[C@@H]3CC[C@H]([C@H](O)c4ccccc4)N3)cc2)CC1 (stereo partly drawn) [Example 439]

EC50 [3]: < 1 nM
SMILES: O=C(c1ccc(CC2CCC(C(O)c3ccccc3)N2)cc1)N1CCC2(CC1)C(=O)NCC2c1ccc(F)cc1 (single isomer, unassigned) [Example 558]

EC50 [5]: 100 to 999 nM
SMILES: O=C(c1ccc(C[C@@H]2CC[C@H]([C@H](O)c3ccccc3)N2)cc1)N1CCN2C(=O)CCC2C1 (stereo partly drawn) [Example 550]

EC50 [3]: 1 to 9.9 nM
SMILES: CC(c1ncccc1Cl)N1CCN(C(=O)c2ccc(CC3CCC(C(O)c4ccccc4)N3)cc2)CC1 (single isomer, unassigned) [Example 593]

EC50 [1]: 100 to 999 nM
SMILES: CC(C(=O)N1CCOCC1)N1CCN(C(=O)c2ccc(C[C@@H]3CC[C@H]([C@H](O)c4ccccc4)N3)cc2)CC1 (stereo partly drawn) [Example 499]

EC50 [7]: 10 to 99.9 nM
SMILES: O=C(c1ccc(C[C@@H]2CC[C@H]([C@H](O)c3ccccc3)N2)cc1)N1CCN(c2ncccc2Cl)CC1 [Example 358]

EC50 [7]: 1 to 9.9 nM
SMILES: O=C(c1ccc(C[C@@H]2CC[C@H]([C@H](O)c3ccccc3)N2)cc1)N1CCN(Cc2c(F)cccc2F)CC1 [Example 411]

EC50 [1]: 10 to 99.9 nM
SMILES: CC(C)[C@@H](C)NC(=O)C(C)N1CCN(C(=O)c2ccc(C[C@@H]3CC[C@H]([C@H](O)c4ccccc4)N3)cc2)CC1 (stereo partly drawn) [Example 441]

EC50 [7]: 100 to 999 nM
SMILES: CN(C)C(=O)CN1CCN(C(=O)c2ccc(C[C@@H]3CC[C@H]([C@H](O)c4ccccc4)N3)cc2)CC1 [Example 389]

EC50 [7]: 10 to 99.9 nM
SMILES: O=C(c1ccc(C[C@@H]2CC[C@H]([C@H](O)c3ccccc3)N2)cc1)N1CCN(Cc2ncccc2F)CC1 [Example 418]

EC50 [3]: 1 to 9.9 nM
SMILES: O=C(c1ccc(CC2CCC(C(O)c3ccccc3)N2)cc1)N1CCC2(CC1)C(=O)NCC2c1ccc(F)cc1 (single isomer, unassigned) [Example 557]

EC50 [7]: 100 to 999 nM
SMILES: O=C(c1ccc(C[C@@H]2CC[C@H]([C@H](O)c3ccccc3)N2)cc1)N1CCN(c2cc3ccccc3cn2)CC1 [Example 374]

EC50 [1]: 10 to 99.9 nM
SMILES: CC(C(=O)NCc1cnoc1)N1CCN(C(=O)c2ccc(C[C@@H]3CC[C@H]([C@H](O)c4ccccc4)N3)cc2)CC1 (stereo partly drawn) [Example 461]

EC50 [1]: 100 to 999 nM
SMILES: CC1CCN(C(=O)C(C)N2CCN(C(=O)c3ccc(C[C@@H]4CC[C@H]([C@H](O)c5ccccc5)N4)cc3)CC2)CC1 (stereo partly drawn) [Example 488]

EC50 [5]: 10 to 99.9 nM
SMILES: C[C@H]1CN(Cc2ccccn2)CCN1C(=O)c1ccc(C[C@@H]2CC[C@H]([C@H](O)c3ccccc3)N2)cc1 [Example 530]

EC50 [7]: 100 to 999 nM
SMILES: Cn1ccnc1CN1CCN(C(=O)c2ccc(C[C@@H]3CC[C@H]([C@H](O)c4ccccc4)N3)cc2)CC1 [Example 396]

EC50 [3]: 1 to 9.9 nM
SMILES: CC(C)C1CC2(CCN(C(=O)c3ccc(CC4CCC(C(O)c5ccccc5)N4)cc3)CC2)C(=O)O1 (single isomer, unassigned) [Example 567]

EC50 [1]: 10 to 99.9 nM
SMILES: CC(C(=O)NCC(=O)N1CCCC1)N1CCN(C(=O)c2ccc(C[C@@H]3CC[C@H]([C@H](O)c4ccccc4)N3)cc2)CC1 (stereo partly drawn) [Example 460]

EC50 [3]: 1 to 9.9 nM
SMILES: CC1CC2(CCN(C(=O)c3ccc(CC4CCC(C(O)c5ccccc5)N4)cc3)CC2)C(=O)O1 (single isomer, unassigned) [Example 561]

EC50 [7]: 100 to 999 nM
SMILES: CCOC(=O)N1CCN(C(=O)c2ccc(C[C@@H]3CC[C@H]([C@H](O)c4ccccc4)N3)cc2)CC1 [Example 344]

EC50 [1]: 10 to 99.9 nM
SMILES: CC(C(=O)N1CCC[C@@H]1C)N1CCN(C(=O)c2ccc(C[C@@H]3CC[C@H]([C@H](O)c4ccccc4)N3)cc2)CC1 (stereo partly drawn) [Example 480]

EC50 [3]: 1 to 9.9 nM
SMILES: O=C(c1ccc(CC2CCC(C(O)c3ccccc3)N2)cc1)N1CCC2(CC1)CC(C(F)(F)F)OC2=O (single isomer, unassigned) [Example 565]

EC50 [4]: 10 to 99.9 nM
SMILES: COc1ccc2c(c1)C(=O)CC1(CCN(C(=O)c3ccc(C[C@@H]4CC[C@H]([C@H](O)c5cccnc5)N4)cc3)CC1)S2 [Example 329]

EC50 [1]: 10 to 99.9 nM
SMILES: Cc1nonc1CN(C)C(=O)C(C)N1CCN(C(=O)c2ccc(C[C@@H]3CC[C@H]([C@H](O)c4ccccc4)N3)cc2)CC1 (stereo partly drawn) [Example 512]

EC50 [4]: 1 to 9.9 nM
SMILES: O=C(c1ccc(C[C@@H]2CC[C@H]([C@H](O)c3ccccc3)N2)cc1)N1CCC2(CC1)Nc1ccccc1S(=O)(=O)N2 [Example 334]

EC50 [1]: 10 to 99.9 nM
SMILES: CC(C(=O)N1CCn2ccnc2C1)N1CCN(C(=O)c2ccc(C[C@@H]3CC[C@H]([C@H](O)c4ccccc4)N3)cc2)CC1 (stereo partly drawn) [Example 502]

EC50 [7]: 10 to 99.9 nM
SMILES: COC(=O)COc1cccnc1N1CCN(C(=O)c2ccc(C[C@@H]3CC[C@H]([C@H](O)c4ccccc4)N3)cc2)CC1 [Example 368]

EC50 [7]: 10 to 99.9 nM
SMILES: CC(C)n1nnc(CN2CCN(C(=O)c3ccc(C[C@@H]4CC[C@H]([C@H](O)c5ccccc5)N4)cc3)CC2)n1 [Example 402]

EC50 [5]: 100 to 999 nM
SMILES: O=C(c1ccc(C[C@@H]2CC[C@H]([C@H](O)c3ccccc3)N2)cc1)N1CCn2cnnc2C1 [Example 548]

EC50 [1]: 10 to 99.9 nM
SMILES: CC(C)C1CC(CNC(=O)C(C)N2CCN(C(=O)c3ccc(C[C@@H]4CC[C@H]([C@H](O)c5ccccc5)N4)cc3)CC2)C1 (stereo partly drawn) [Example 454]

EC50 [4]: 10 to 99.9 nM
SMILES: CC1C(=O)c2cc(S(C)(=O)=O)ccc2OC12CCN(C(=O)c1ccc(C[C@@H]3CC[C@H]([C@H](O)c4ccccc4)N3)cc1)CC2 (stereo partly drawn) [Example 335]

From US8354403B2, “Pyrrolidine derived beta 3 adrenergic receptor agonists” (Merck Sharp & Dohme Corp., priority 2009, dated 2013)
